{
  "source": "patent US20050014268A1",
  "about": "“Genetic transformation using a PARP inhibitor” (Bayer BioScience NV, priority 1995, published 2005)",
  "key": {"[1]": {"test_system": "Brassica napus hypocotyl explants", "assay": "Tissue culture of Brassica napus hypocotyl explants on A5 medium containing niacinamide", "assay_type": "cell-based", "description": "Hypocotyl explants of Brassica napus were obtained, cultured and transformed essentially as described by De Block et al, 1989, Plant Physiol. 914:694-701 except for the following modifications: • hypocotyl explants were precultured for 3 days on A2 medium (MS, 0.5 g/l Mes (pH 5.7), 1.2% glucose, 0.5% agarose, 1 mg/l 2,4-D, 0.25 mg/l naphthalene acetic acid (NAA), 1 mg/l 6-benzylaminopurine (BAP)), […] MS, 0.5 g/l Mes (pH 5.7), 1.2% glucose, 0.1 mg/l NAA, 0.75 mg/l BAP, 0.01 mg/l giberellinic acid (GA3) • selection medium A5 was 0.5 g/l Mes (pH 5.7), 1.2% glucose, 40 mg/l adenine.SO4, 0.5 g/l polyvinyl-polypyrrolidone (PVP), 0.5% agarose, 0.1 mg/l NAA, 0.75 mg/l BAP, 0.01 mg/l GA3, 250 mg/l carbenicillin, 250 mg/l triacillin, 5 mg/l AgNO3. • regeneration medium A6 was MS, 0.5 g/l Mes (pH 5.7), 2% sucrose, 40 mg/l adenine.SO4, 0.5 g/l PVP, 0.5% agarose, 0.0025 mg/l BAP, 250 mg/l triacillin. • healthy shoots were transferred to 1 liter vessels containing rooting medium which was either A8 or A9; A8 consists of 100-130 ml half concentrated MS, 1% sucrose (pH 5.0), 1 mg/l isobutyric acid (IBA), 100 mg/l triacillin added to 300 ml perlite (final pH 6.2); A9 consists of half concentrated MS, 1.5% sucrose (pH 5.8) solidified with agar (0.6%)"}, "[2]": {"test_system": "wheat embryogenic callus (variety Pavon)", "assay": "Transformation of wheat calli with barnase/bar plasmids by particle bombardment, with niacinamide treatment of the calli", "assay_type": "cell-based", "description": "The Wheat Spring variety Pavon is grown in a greenhouse or conditioned room at 23-24° C. during daytime and 18-20° C. at night, with a photoperiod of 16 hours light and 8 hours dark. Developing seeds (white-greenish with white semi-liquid endosperm) were harvested, sterilized by incubation for 1 minute in 70% ethanol followed by 15 minute incubation in 1.3% NaOCl+0.1% Tween 20, and washed with sterile water. The sterilized seeds were either used directly or were stored for one day at 4-7° C.\nImmature embryos of about 1 mm in size were isolated and were placed, with the scutellum upwards, on callus inducing medium W1 (MS medium supplemented with 3% sucrose, 40 mg/l adenine.SO4, 0.5 mg/l thiamine.HCl, 0.5 g/l 2-[N-Morpholino] ethane sulfonic acid (Mes) pH 5.8, 0.5% agarose, 0.5 to 2.5 mg/l CuSO4.5H2O, 25 mg/l acetylsalicylic acid and 2 mg/l 2,4-dichlorophenoxyacetic acid (2,4-D)) and were incubated for 3 weeks at 27° C. in the dark.\nEmbryogenic sections of the developing callus were isolated, placed on callus maintenance medium W2 (W1 medium but without acetylsalicylic acid and with only 0.5 mg/l CuSO4.5H2O and 1 mg 2,4-D), and incubated for 3 weeks at 24-25° C. in the light (approx. 20 mEinsteins/s/m^2 (with a photoperiod of 16 hours light and 8 hours dark).\nAbout 2 weeks prior to bombardment the calli were cleaned up by removal of non-morphogenic (i.e. the nonembryogenic and nonmeristematic) parts and were subcultured on W2 medium.\nFor bombardment the calli were divided into small pieces with an average maximum diameter of about 2-3 mm. These pieces were placed at the center of a 9 cm Petridish containing W2 medium in a circle with a diameter of approx. 0.5 cm. […]\nBombardment was carried out using the Biolistic PDS-1000/He apparatus (Bio-Rad). Preparation of the microcarriers ([…]) and the coating of the microcarriers with DNA was essentially carried out according to the manufacturer's instructions. The Petridishes containing the calli were placed at level 2 of the apparatus and the bombardment was done at 1550 psi.\nFor the transformation experiments the following plasmid DNA was used. • plasmid pVE136, the sequence of which is given in SEQ ID No 4. This plasmid contains the following chimeric genes: • P35S-bar-3′nos • PCA55-barnase-3′nos • in which P35S is the 35S promoter of the Cauliflower, Mosaic virus, bar is a DNA encoding phosphinothricin acetyltransferase (EP 242236), 3′nos is the 3′ untranslated end of the Agrobacterium T-DNA nopaline synthase gene, PCA55 is a stamen-specific promoter from corn gene CA55 (WO 9213957), and barnase is a DNA encoding barnase (Hartley, 1988, J.Mol.Biol.202:913-915) • plasmid pTS172 the sequence of which is given in SEQ ID No 2. This plasmid contains the following chimeric genes: • P35S-bar-3′g7 • PE1-barnase-3′nos • in which in which P35S is the 35S promoter of the Cauliflower Mosaic virus, bar is a DNA encoding phosphinothricin acetyltransferase (EP 242236), 3′g7 is the 3′ untranslated end of the Aqrobacterium T-DNA gene 7, PE1 is a stamen-specific promoter from rice gene E1 (WO 9213956), barnase is a DNA encoding barnase (Hartley, 1988, J.Mol.Biol.202:913-915), and 3′ nos is the 3′ untranslated end of the Agrobacterium T-DNA nopaline synthase gene, • plasmid pTS772 which is identical to pTS172 except that the region between nucleotides 2625-4313 of pTS172, containing PE1, is replaced by the sequence of SEQ ID No 3 containing the PT72 promoter. Thus, plasmid pTS772 contains the following chimeric genes: • P35S-bar-3′g7 • PT72-barnase-3′nos • in which PT72 is a stamen-specific promoter from rice gene T72 (WO 9213956)\nThe bombarded calli were transferred to selective medium W2 containing 2.5 mg/l phosphinothricin (PPT) and, if neccesary, 100 mg/l niacinamide. The calli that were placed on medium containing niacinamide were transferred after 4 days to niacinamide-free W2 medium containing 2.5 mg/l PPT. The cells were cultured at 24-25° C. […]"}, "[3]": {"conditions": "after 4-5 days of incubation with niacinamide"}, "[4]": {"conditions": "Plasmid pTS172, Before 250, 125 bombarded calli"}, "[5]": {"conditions": "Plasmid pTS772, Before 250, 210 bombarded calli"}, "[6]": {"conditions": "Plasmid pTS772, Before/After, 210 bombarded calli"}},
  "note": "Marks after values point to notes of the source that are not given here.",
  "data": [
    {"smiles": "NC(=O)c1cccnc1", "note": "[niacinamide]", "values": [
      {"measurement": "anthocyanin production in tissue culture", "setting": "[1]; A5 medium containing 250 mg/l niacinamide", "result": "no anthocyanin was produced"},
      {"measurement": "concentration of dehydroascorbate in the explants", "setting": "[1]; [3]", "result": "drastically decreased"},
      {"measurement": "concentration of hydroxyl free radical in the explants", "setting": "[1]; [3]", "result": "drastically decreased"},
      {"measurement": "percentage of cultured cells in G2 phase of the cell cycle", "setting": "[1]; after a 4 day incubation in niacinamide containing medium, considerably increased", "result": "up to 45 % of all cells in the culture"},
      {"measurement": "Nr of PPT-resistant calli recovered", "setting": "[2]; Plasmid pTS172, Before 250 (250 mg/l niacinamide for four days prior to bombardment), 125 bombarded calli", "result": 30},
      {"measurement": "Nr of MS plants recovered", "setting": "[2]; [4]", "result": "3^b)"},
      {"measurement": "Nr of PPT resistant plants recovered", "setting": "[2]; [4]", "result": 3},
      {"measurement": "appearance of the obtained plants", "setting": "[2]; Plasmid pTS172, Before 250, MS plants", "result": "^b)The obtained plants looked healthy and tillered vigorously"},
      {"measurement": "Nr of PPT resistant plants recovered", "setting": "[2]; [5]", "result": 7},
      {"measurement": "Nr of PPT-resistant calli recovered", "setting": "[2]; [5]", "result": 75},
      {"measurement": "Nr of MS plants recovered", "setting": "[2]; Plasmid pTS772, Before 250, 210 bombarded calli, only six plants could be analyzed for MS phenotype", "result": "3^a)b)"},
      {"measurement": "appearance of the obtained plants", "setting": "[2]; Plasmid pTS772, Before 250 and Before/After, MS plants", "result": "^a)The obtained plants looked healthy and tillered vigorously"},
      {"measurement": "Nr of PPT-resistant calli recovered", "setting": "[2]; Plasmid pTS772, Before/After (250 mg/l four days prior plus 100 mg/l four days after bombardment), 210 bombarded calli", "result": 45},
      {"measurement": "Nr of MS plants recovered", "setting": "[2]; [6]", "result": "3^a"},
      {"measurement": "Nr of PPT resistant plants recovered", "setting": "[2]; [6]", "result": 6},
      {"measurement": "Nr of PPT resistant plants recovered", "setting": "[2]; Plasmid pVE136, Before 100 (100 mg/l niacinamide for four days prior to bombardment), 800 bombarded calli", "result": "8^a)"},
      {"measurement": "Nr of MS plants recovered", "setting": "[2]; Plasmid pVE136, Before 100, 800 bombarded calli", "result": 8},
      {"measurement": "appearance of the obtained plants", "setting": "[2]; Plasmid pVE136, Before 100, PPT resistant plants", "result": "^a)The obtained plants looked healthy and tillered vigorously"},
      {"measurement": "recovery of plants from bombarded calli", "setting": "[2]; Tables 1, 2 and 3, treated versus untreated calli", "result": "obtained only from bombarded calli that were treated with niacinamide"}
    ]}
  ]
}
